From US7612087B2, “Heterocyclic compounds as inhibitors of beta-lactamases” (Novexel, priority 2002, dated 2009)

Tests used:
[1] = target: T1, β-lactamase TEM1 (Escherichia coli, UniProt P62593); assay: Inhibition of isolated β-lactamase Tem-1 (Nitrocefin hydrolysis); format: biochemical, E.coli 250HT21; conditions: 100 μM Nitrocefin, 50 mM sodium phosphate buffer pH7.0, 37° C.
T1 construct: The β-lactamases are isolated from bacterial strains which are resistant to penicillins and cephalosporins; endogenous in cells; host or cells: E. coli 250HT21 (natural producer; French-press lysate, 100,000 g supernatant)
Summary of the method: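 TEM-1 from soluble extract of E. coli 250HT21, normalized enzyme, 100 μM Nitrocefin in 50 mM sodium phosphate pH 7.0 at 37 °C. Initial-rate hydrolysis read kinetically at 485 nm, with and without 5 min enzyme–inhibitor preincubation. CI50 from 6 or 8 concentrations in duplicate.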

[2] = tested on: P. aeruginosa 391HT8 (PSE); assay: MIC, micro-dilution in liquid medium, β-lactamine with product at 5 mg/l; format: cell-based; conditions: compound at 5 mg/l, 24 hours at 37° C.; for MIC of Cefotaxime in combination with the compound: Trial 12, 391HT8 P. aeruginosa PSE; for MIC of Piperacillin in combination with the compound: Trial 12, 391HT8 PSE
Method: (§1) The operation is carried out as follows, using the so-called micro-dilution in liquid medium method.
(§2) A series of concentrations of the β-lactamine is prepared in the presence of a constant concentration (5 mg/l) of the product to be studied, each is then seeded with various bacterial strains.
(§3) After incubation for 24 hours in a heating chamber at 37° C., the growth inhibition is evaluated by the absence of any bacterial development, which allows the minimal inhibitory concentrations (MIC) for each strain to be determined, expressed in milligrams/l.

[3] = tested on: E. cloacae 293HT6 (Class C); assay: as above; format: cell-based; conditions: compound at 5 mg/l, 24 hours at 37° C.; for MIC of Piperacillin in combination with the compound: Trial 9, 293HT6 Class; for MIC of Cefotaxime in combination with the compound: Trial 9, 293HT6 E. cloacae Class C
Method: as §1, §2, §3

[4] = tested on: E. coli 250HT26 (SHV1); assay: as above; format: cell-based; conditions: compound at 5 mg/l, 24 hours at 37° C.; for MIC of Cefotaxime in combination with the compound: Trial 6, 250HT26 E. coli SHV1; for MIC of Piperacillin in combination with the compound: Trial 6, 250HT26 SHV1
Method: as §1, §2, §3

[5] = tested on: E. coli 250HT22 (Tem2); assay: as above; format: cell-based; conditions: compound at 5 mg/l, 24 hours at 37° C.; for MIC of Cefotaxime in combination with the compound: Trial 3, 250HT22 E. coli Tem2; for MIC of Piperacillin in combination with the compound: Trial 3, 250HT22 Tem2
Method: as §1, §2, §3

[6] = tested on: E. coli 250SJ1 (Tem7); assay: as above; format: cell-based; conditions: compound at 5 mg/l, 24 hours at 37° C.; for MIC of Cefotaxime in combination with the compound: Trial 5, 250SJ1 E. coli Tem7; for MIC of Piperacillin in combination with the compound: Trial 5, 250SJ1 Tem7
Method: as §1, §2, §3

[7] = tested on: Serratia 301HT6; assay: as above; format: cell-based; conditions: compound at 5 mg/l; Trial 10, 301HT6 Serratia; 24 hours at 37° C.
Method: as §1, §2, §3

[8] = tested on: E. coli 250HT23 (Class D); assay: as above; format: cell-based; conditions: compound at 5 mg/l, 24 hours at 37° C.; for MIC of Piperacillin in combination with the compound: Trial 8, 250HT23 Class D; for MIC of Cefotaxime in combination with the compound: Trial 8, 250HT23 E. coli Class D
Method: as §1, §2, §3

[9] = tested on: P. aeruginosa 391HT7 (PSE); assay: as above; format: cell-based; conditions: compound at 5 mg/l, 24 hours at 37° C.; for MIC of Cefotaxime in combination with the compound: Trial 11, 391HT7 P. aeruginosa PSE; for MIC of Piperacillin in combination with the compound: Trial 11, 391HT7 PSE
Method: as §1, §2, §3

[10] = tested on: E. coli 250HT21 (Tem1); assay: as above; format: cell-based; conditions: compound at 5 mg/l, 24 hours at 37° C.; for MIC of Cefotaxime in combination with the compound: Trial 2, 250HT21 E. coli Tem1; for MIC of Piperacillin in combination with the compound: Trial 2, 250HT21 Tem1
Method: as §1, §2, §3

[11] = tested on: S. aureus 011GO66 (PeniR); assay: as above; format: cell-based; conditions: compound at 5 mg/l, 24 hours at 37° C.; for MIC of Cefotaxime in combination with the compound: Trial 1, 011GO66 S. aureus PeniR; for MIC of Piperacillin in combination with the compound: Trial 1, 011GO66 peniR
Method: as §1, §2, §3

[12] = tested on: E. coli 250BE1 (SHV4); assay: as above; format: cell-based; conditions: compound at 5 mg/l, 24 hours at 37° C.; for MIC of Cefotaxime in combination with the compound: Trial 7, 250BE1 E. coli SHV4; for MIC of Piperacillin in combination with the compound: Trial 7, 250BE1 SHV4
Method: as §1, §2, §3

[13] = target: T2, β-lactamase P99 (Enterobacter cloacae, UniProt P05364); assay: biochemical; conditions: 100 μM Nitrocefin, 50 mM sodium phosphate buffer pH7.0, 37° C.; read-out: IC50 nM/P99
T2 construct: The β-lactamases are isolated from bacterial strains which are resistant to penicillins and cephalosporins; endogenous in cells; host or cells: Enterobacter cloacae 293HT6 (natural producer; French-press lysate, 100,000 g supernatant)
Summary of the method: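 P99 β-lactamase, taken from the soluble fraction of an Enterobacter cloacae 293HT6 lysate, was assayed at 37° C. in 50 mM sodium phosphate buffer pH7.0 with 100 μM Nitrocefin as the chromogenic substrate. Hydrolysis was followed kinetically at 485 nm at initial speed, with and without a 5 mn enzyme–inhibitor preincubation. Inhibitors were tested at 6 or 8 concentrations in duplicate, and IC50 was fitted with GraFit.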

[14] = tested on: E. coli 250CF1 (Tem3); assay: microbe, parasite or virus in culture; format: cell-based; conditions: compound at 5 mg/l, 24 hours at 37° C.; for MIC of Cefotaxime in combination with the compound: Trial 4, 250CF1 E. coli Tem3; for MIC of Piperacillin in combination with the compound: Trial 4, 250CF1 Tem3
Method: as §1, §2, §3

T2 sequence (P05364 21-381): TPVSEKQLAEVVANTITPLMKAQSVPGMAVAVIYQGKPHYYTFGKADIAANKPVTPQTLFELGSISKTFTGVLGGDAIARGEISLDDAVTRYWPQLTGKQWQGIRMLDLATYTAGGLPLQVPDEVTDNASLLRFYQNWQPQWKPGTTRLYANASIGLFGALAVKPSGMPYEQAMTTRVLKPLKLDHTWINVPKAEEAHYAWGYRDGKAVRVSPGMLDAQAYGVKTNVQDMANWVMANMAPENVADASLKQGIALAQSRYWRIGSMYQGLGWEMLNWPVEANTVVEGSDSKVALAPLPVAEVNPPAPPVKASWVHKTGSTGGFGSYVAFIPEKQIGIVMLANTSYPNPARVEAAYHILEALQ
T1 sequence (P62593 24-286 limits assumed): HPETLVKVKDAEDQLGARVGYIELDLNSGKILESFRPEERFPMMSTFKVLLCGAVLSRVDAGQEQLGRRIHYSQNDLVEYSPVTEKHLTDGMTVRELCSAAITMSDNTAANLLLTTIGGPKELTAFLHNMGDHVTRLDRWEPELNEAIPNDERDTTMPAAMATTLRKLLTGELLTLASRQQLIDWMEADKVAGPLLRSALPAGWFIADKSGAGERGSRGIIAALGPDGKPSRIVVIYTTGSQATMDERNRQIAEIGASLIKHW

SMILES	IC50 [1]	MIC of Cefotaxime in combination with the compound [2]	MIC of Piperacillin in combination with the compound [2]	MIC of Piperacillin in combination with the compound [3]	MIC of Cefotaxime in combination with the compound [3]	MIC of Cefotaxime in combination with the compound [4]	MIC of Piperacillin in combination with the compound [4]	MIC of Cefotaxime in combination with the compound [5]	MIC of Piperacillin in combination with the compound [5]	MIC of Cefotaxime in combination with the compound [6]	MIC of Piperacillin in combination with the compound [6]	MIC of Cefotaxime in combination with the compound [7]	MIC of Piperacillin in combination with the compound [7]	MIC of Piperacillin in combination with the compound [8]	MIC of Cefotaxime in combination with the compound [8]	MIC of Cefotaxime in combination with the compound [9]	MIC of Piperacillin in combination with the compound [9]	MIC of Cefotaxime in combination with the compound [10]	MIC of Piperacillin in combination with the compound [10]	MIC of Cefotaxime in combination with the compound [11]	other results
O=C(NCCc1ccccn1)[C@H]1CC[C@@H]2CN1C(=O)N2OS(=O)(=O)[O-].[Na+] (relative stereo) [Example 38, sodium salt of trans-7-oxo-N-[2-(2-pyridinyl)ethyl]-6-(sulphooxy)-1,6-diazabicyclo[3.2.1]octane-2-carboxamide]	35 nM	40 µg/mL	>40 µg/mL	40 µg/mL	20 µg/mL	<=0.04 μg/ml	40 µg/mL	<=0.04 μg/ml	>40 µg/mL	<=0.04 μg/ml	>40 µg/mL	0.08 µg/mL	1.2 µg/mL	>40 µg/mL	<=0.04 μg/ml	40 µg/mL	>40 µg/mL	<=0.04 μg/ml	5 µg/mL	1.2 µg/mL	MIC of Piperacillin in combination with the compound [11]: 0.6 µg/mL; MIC of Cefotaxime in combination with the compound [12]: 0.3 µg/mL; MIC of Piperacillin in combination with the compound [12]: >40 µg/mL; IC50 [13]: 77 nM; MIC of Cefotaxime in combination with the compound [14]: 0.3 µg/mL; MIC of Piperacillin in combination with the compound [14]: 20 µg/mL
NC(=O)c1cccc(NC(=O)[C@H]2CC[C@@H]3CN2C(=O)N3OS(=O)(=O)[O-])c1.[Na+] (relative stereo) [Example 39, sodium salt of trans-N-[3-(aminocarbonyl)phenyl]-7-oxo-6-(sulphooxy)-1,6-diazabicyclo[3.2.1]octane-2-carboxamide]	31 nM	20 µg/mL	>40 µg/mL	20 µg/mL	1.2 µg/mL	<=0.04 μg/ml	40 µg/mL	<=0.04 μg/ml	20 µg/mL	<=0.04 μg/ml	>40 µg/mL	<=0.04 μg/ml	0.6 µg/mL	10 µg/mL	<=0.04 μg/ml	20 µg/mL	>40 µg/mL	<=0.04 μg/ml	2.5 µg/mL	2.5 µg/mL	MIC of Piperacillin in combination with the compound [11]: 1.2 µg/mL; MIC of Cefotaxime in combination with the compound [12]: 0.08 µg/mL; MIC of Piperacillin in combination with the compound [12]: 20 µg/mL; IC50 [13]: 50 nM; MIC of Cefotaxime in combination with the compound [14]: 0.08 µg/mL; MIC of Piperacillin in combination with the compound [14]: 40 µg/mL
